Source: publication PMC2709368 (The Journal of Biological Chemistry, 2009)

Target: T1, prolectin (Homo sapiens, UniProt Q6ZS10)
T1 sequence (Q6ZS10 194-378 limits assumed): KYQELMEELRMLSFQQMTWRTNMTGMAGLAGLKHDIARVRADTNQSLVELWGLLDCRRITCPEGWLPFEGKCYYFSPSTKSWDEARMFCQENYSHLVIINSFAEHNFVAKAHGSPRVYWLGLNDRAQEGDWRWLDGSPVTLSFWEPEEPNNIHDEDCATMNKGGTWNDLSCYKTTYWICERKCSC
Test: solid-phase competition binding, […]-Man-BSA reporter
Details: competitive; immobilised extracellular domain; Ca2+-dependent site

SMILES	Relative KI
C[C@@H]1OC(O)[C@@H](O)[C@H](O)[C@@H]1O (stereo partly shown) [Fuc]	1.1 ± 0.1 relative to KI of αMe-Man
CC(=O)N[C@H]1C(O)O[C@H](CO)[C@@H](O)[C@@H]1O (stereo partly shown) [GlcNAc]	1.2 ± 0.1 relative to KI of αMe-Man
CC(=O)N[C@H]1C(O)O[C@H](CO)[C@@H](O[C@@H]2O[C@@H](C)[C@@H](O)[C@@H](O)[C@@H]2O)[C@@H]1O[C@@H]1O[C@H](CO)[C@H](O)[C@H](O)[C@H]1O (stereo partly shown) [Le^a]	0.22 ± 0.01 relative to KI of αMe-Man
CC(=O)N[C@H]1C(O)O[C@H](CO)[C@@H](O[C@@H]2O[C@H](CO)[C@H](O)[C@H](O)[C@H]2O)[C@@H]1O[C@@H]1O[C@@H](C)[C@@H](O)[C@@H](O)[C@@H]1O (stereo partly shown) [Le^x]	0.72 ± 0.08 relative to KI of αMe-Man
OC[C@H]1OC(O)[C@@H](O)[C@@H](O)[C@@H]1O (stereo partly shown) [Man]	1.2 ± 0.1 relative to KI of αMe-Man
CO[C@H]1O[C@H](CO)[C@H](O)[C@H](O)[C@H]1O [αMe-Gal]	> 30 relative to KI of αMe-Man
CO[C@H]1O[C@H](CO)[C@@H](O)[C@H](O)[C@H]1O [αMe-Glc]	3.2 ± 0.1 relative to KI of αMe-Man
